According to patent US20080070875A1, “Acne treatment compositions and methods of use” (priority 2006, published 2008):
Like-named read-outs stand apart in the source and are kept apart here.

System: P. acnes (MicroBiologics, ATCC #11827)
Assay: Minimal inhibitory concentration (MIC) against P. acnes, serial dilution in thioglycollate broth
Format: cell-based, Propionbacterium acnes
Conditions: for MIC: Cutibacterium acnes
Procedure: The objective of this example was to establish the minimal inhibitory concentration (MIC) of quercetin (Q), rosmarinic acid (RA), triclosan (T) and salicylic acid (SA) towards the bacterium P. acnes. Combinations of quercetin with rosmarinic acid 1:1 (Q+RA) and quercetin with salicylic acid (1:1) (Q+SA) were also tested.
The following methods were used in this example. P. acnes (MicroBiologics, ATCC #11827, batch #419697) was inoculated at 3 different dilutions and grown on blood agar plates for 3 days in anaerobic condition at 37 C. About 10 colonies were than suspended in thioglycollate broth in order to achieve the density equivalent to 0.5 McFarland standard. Test materials were dissolved in the thioglycollate broth at following concentrations:
The antimicrobial effect of the test samples was assayed by making serial dilutions for each material or the 1:1 combination thereof, followed by anaerobic incubation with bacterial agent in thioglycollate brothin a 96 well plate, at the initial density of 5×10^5 CFU/ml (0.001 McFarland standard). MIC was determined visually after 84 hours and confirmed by spectrophotometry at 405 nm with the BioRad 3550-UV microplate reader, using media with respective test materials without bacteria for background subtraction.

[1] = ATCC11827, anaerobic incubation in thioglycollate broth, 84 hours, visual, confirmed at 405 nm, read-out: MIC
[2] = anaerobic incubation in thioglycollate broth, 84 hours

Compound | MIC [1] [µg/mL] | MIC (%) [2] [%] | activity towards inhibiting P. acnes in the presence of salicylic acid (in the presence of salicylic acid (1:1), result in words) | activity towards inhibiting P. acnes (result in words) | MIC (ATCC11827, 84 h) [µg/mL]
O=c1c(O)c(-c2ccc(O)c(O)c2)oc2cc(O)cc(O)c12 [Q, 2-(3,4-dihydroxyphenyl)-3,5,7-trihydroxy-4H-1-benzopyran-4-one] | 30 | 0.003 | maintained activity | significant activity | –
O=C(/C=C/c1ccc(O)c(O)c1)O[C@H](Cc1ccc(O)c(O)c1)C(=O)O [RA] | 30 | 0.003 | – | significant activity | –
O=C(O)c1ccccc1O [SA, 2-Hydroxybenzoic acid, reference compound] | > 2000 | 2 | – | – | –
Oc1cc(Cl)ccc1Oc1ccc(Cl)cc1Cl [T, triclosan, reference compound] | – | 0.4 | – | – | 400
